Experimental findings from PubChem BioAssay AID652018 (The Scripps Research Institute Molecular Screening Center, 2013) are described below.

Experiment [1] deals with Acyl-protein thioesterase 2 (Homo sapiens) (UniProt O95372). Nature of the experiment: LYPLA1/LYPLA2 inhibition and anti-target count – cell lysate, competitive ABPP, HEK293T proteome, set 2, selectivity assay for LYPLA1 inhibitor project, late-stage follow-up (AID 652018).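 Note: 0% = DMSO-only band intensity and 100% = blank gel background.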 The following applies: competitive ABPP FP-PEG-Rh gel, stronger effect = higher value.
For experiment [2], the target named is Acyl-protein thioesterase 1 (Homo sapiens) (UniProt O75608). The description is as above. The following applies: competitive ABPP FP-PEG-Rh gel, stronger effect = higher value.

Calls of active or inactive are those of the source.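 Rule for the calls: active = at least 50% inhibition of LYPLA1 or LYPLA2 at 300 nM, with no off-target enzyme hit at any dose; inactive = under 50% inhibition on both enzymes, or any off-target hit.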

The inhibition is the drop in the measured response relative to a control, in per cent.

Acyl-protein thioesterase 2 (Homo sapiens), sequence (O95372 whole entry, looked up): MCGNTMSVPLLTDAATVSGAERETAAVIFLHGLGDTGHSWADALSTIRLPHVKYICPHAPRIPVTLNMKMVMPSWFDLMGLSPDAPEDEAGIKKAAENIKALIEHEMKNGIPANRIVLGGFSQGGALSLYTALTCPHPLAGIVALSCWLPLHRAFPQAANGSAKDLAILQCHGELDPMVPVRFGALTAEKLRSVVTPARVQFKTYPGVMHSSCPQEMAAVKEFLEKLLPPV
Acyl-protein thioesterase 1 (Homo sapiens), sequence (O75608 whole entry, looked up): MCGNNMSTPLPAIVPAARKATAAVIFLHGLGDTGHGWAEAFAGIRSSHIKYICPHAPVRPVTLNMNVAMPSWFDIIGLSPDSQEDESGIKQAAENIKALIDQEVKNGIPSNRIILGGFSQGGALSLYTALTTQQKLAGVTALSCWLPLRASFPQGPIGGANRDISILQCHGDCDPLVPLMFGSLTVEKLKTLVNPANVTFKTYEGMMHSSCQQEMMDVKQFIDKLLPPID

For the molecule `COc1ccc(N2CCN(C(=O)n3cncn3)CC2)cc1`, the inhibition was 95% (inactive) in experiment [1] (LYPLA2, at 10 µM); 10% in experiment [1] (LYPLA2, inhibition, at 0.3 µM); 30% in experiment [1] (LYPLA2, inhibition, at 1 µM); 95% (inactive) in experiment [2] (LYPLA1, at 10 µM); 20% in experiment [2] (LYPLA1, inhibition, at 0.3 µM); 75% in experiment [2] (LYPLA1, inhibition, at 1 µM).
In the case of `O=C(CN1CCN(C(=O)n2cncn2)CC1)Nc1cc(C(F)(F)F)ccc1Cl`, the inhibition was 30% (inactive) in experiment [1] (LYPLA2, at 10 µM); 30% in experiment [1] (LYPLA2, inhibition, at 0.3 µM); 30% in experiment [1] (LYPLA2, inhibition, at 1 µM); 30% (inactive) in experiment [2] (LYPLA1, at 10 µM); 30% in experiment [2] (LYPLA1, inhibition, at 0.3 µM); 30% in experiment [2] (LYPLA1, inhibition, at 1 µM).
With `O=C(N1CCN(c2ccc(Cl)c(Cl)c2)CC1)n1ncc(C(O)(c2ccccc2)c2ccccc2)n1`, the inhibition in experiment [1] (LYPLA2, at 10 µM) was 30% (inactive); in experiment [1] (LYPLA2, inhibition, at 0.3 µM), 20%; in experiment [1] (LYPLA2, inhibition, at 1 µM), 30%; in experiment [2] (LYPLA1, at 10 µM) it was 80% (inactive); in experiment [2] (LYPLA1, inhibition, at 0.3 µM), 30%; in experiment [2] (LYPLA1, inhibition, at 1 µM), 40%.
Consider `O=C(CN1CCN(C(=O)n2nc(Br)c(Br)n2)CC1)Nc1cc(C(F)(F)F)ccc1Cl`, for which the inhibition in experiment [1] (LYPLA2, at 10 µM) was 100%; in experiment [1] (LYPLA2, inhibition, at 0.3 µM), 85%; in experiment [1] (LYPLA2, inhibition, at 1 µM), 100%; in experiment [2] (LYPLA1, at 10 µM), 95%; in experiment [2] (LYPLA1, inhibition, at 0.3 µM), 90%; in experiment [2] (LYPLA1, inhibition, at 1 µM) it was 90%.
Regarding `COc1ccc(N2CCN(C(=O)n3cc(C(O)(c4ccccc4)c4ccccc4)nn3)CC2)cc1`, the inhibition is 100% (inactive) in experiment [1] (LYPLA2, at 10 µM); 20% in experiment [1] (LYPLA2, inhibition, at 0.3 µM); 95% in experiment [1] (LYPLA2, inhibition, at 1 µM); 95% in experiment [2] (LYPLA1, at 10 µM); 85% in experiment [2] (LYPLA1, inhibition, at 0.3 µM); 95% in experiment [2] (LYPLA1, inhibition, at 1 µM).
For `COc1ccc(N2CCN(C(=O)n3nccn3)CC2)cc1`, the inhibition in experiment [1] (LYPLA2, at 10 µM) was 100% (inactive); in experiment [1] (LYPLA2, inhibition, at 0.3 µM), 10%; in experiment [1] (LYPLA2, inhibition, at 1 µM), 60%; in experiment [2] (LYPLA1, at 10 µM) it was 95% (inactive); in experiment [2] (LYPLA1, inhibition, at 0.3 µM) it was 20%; in experiment [2] (LYPLA1, inhibition, at 1 µM), 80%.
With `O=C(CN1CCN(C(=O)n2nccn2)CC1)Nc1cc(C(F)(F)F)ccc1Cl`, the inhibition was 95% (inactive) in experiment [1] (LYPLA2, at 10 µM); 30% in experiment [1] (LYPLA2, inhibition, at 0.3 µM); 40% in experiment [1] (LYPLA2, inhibition, at 1 µM); 95% (inactive) in experiment [2] (LYPLA1, at 10 µM); 30% in experiment [2] (LYPLA1, inhibition, at 0.3 µM); 60% in experiment [2] (LYPLA1, inhibition, at 1 µM).
With `COc1ccc(N2CCN(C(=O)n3ncc(C(O)(c4ccccc4)c4ccccc4)n3)CC2)cc1`, the inhibition in experiment [1] (LYPLA2, at 10 µM) was 100%; in experiment [1] (LYPLA2, inhibition, at 0.3 µM) it was 75%; in experiment [1] (LYPLA2, inhibition, at 1 µM), 100%; in experiment [2] (LYPLA1, at 10 µM), 95%; in experiment [2] (LYPLA1, inhibition, at 0.3 µM), 95%; in experiment [2] (LYPLA1, inhibition, at 1 µM), 95%.
Turning to `O=C(CN1CCN(C(=O)n2ncc(-c3ccc(OC(F)(F)F)cc3)n2)CC1)Nc1cc(C(F)(F)F)ccc1Cl`, the inhibition in experiment [1] (LYPLA2, at 10 µM) was 95% (inactive); in experiment [1] (LYPLA2, inhibition, at 0.3 µM), 30%; in experiment [1] (LYPLA2, inhibition, at 1 µM), 30%; in experiment [2] (LYPLA1, at 10 µM) it was 90% (inactive); in experiment [2] (LYPLA1, inhibition, at 0.3 µM), 30%; in experiment [2] (LYPLA1, inhibition, at 1 µM), 30%.
Turning to `COc1ccc(N2CCN(C(=O)n3cc(-c4ccc(OC(F)(F)F)cc4)nn3)CC2)cc1`, the inhibition is 60% (inactive) in experiment [1] (LYPLA2, at 10 µM); 10% in experiment [1] (LYPLA2, inhibition, at 0.3 µM); 10% in experiment [1] (LYPLA2, inhibition, at 1 µM); 80% (inactive) in experiment [2] (LYPLA1, at 10 µM); 20% in experiment [2] (LYPLA1, inhibition, at 0.3 µM); 20% in experiment [2] (LYPLA1, inhibition, at 1 µM).
Turning to `COc1ccc(N2CCN(C(=O)n3ccnn3)CC2)cc1`, the inhibition in experiment [1] (LYPLA2, at 10 µM) is 85% (inactive); in experiment [1] (LYPLA2, inhibition, at 0.3 µM), 10%; in experiment [1] (LYPLA2, inhibition, at 1 µM) it was 30%; in experiment [2] (LYPLA1, at 10 µM) it was 90% (inactive); in experiment [2] (LYPLA1, inhibition, at 0.3 µM) it was 20%; in experiment [2] (LYPLA1, inhibition, at 1 µM) it was 50%.
Take `O=C(CN1CCN(C(=O)n2cc(-c3ccc(-c4ccccc4)cc3)nn2)CC1)Nc1cc(C(F)(F)F)ccc1Cl`: the inhibition in experiment [1] (LYPLA2, at 10 µM) is 30% (inactive); in experiment [1] (LYPLA2, inhibition, at 0.3 µM), 30%; in experiment [1] (LYPLA2, inhibition, at 1 µM), 30%; in experiment [2] (LYPLA1, at 10 µM), 30% (inactive); in experiment [2] (LYPLA1, inhibition, at 0.3 µM), 30%; in experiment [2] (LYPLA1, inhibition, at 1 µM), 30%.
`O=C(N1CCN(c2ccc(Br)cc2)CC1)n1ncc(C(O)(c2ccccc2)c2ccccc2)n1`: the inhibition in experiment [1] (LYPLA2, at 10 µM) was 80% (inactive); in experiment [1] (LYPLA2, inhibition, at 0.3 µM) it was 20%; in experiment [1] (LYPLA2, inhibition, at 1 µM) it was 30%; in experiment [2] (LYPLA1, at 10 µM), 100% (inactive); in experiment [2] (LYPLA1, inhibition, at 0.3 µM), 40%; in experiment [2] (LYPLA1, inhibition, at 1 µM), 90%.
Take `O=C(CN1CCN(C(=O)n2cc(-c3ccc(OC(F)(F)F)cc3)nn2)CC1)Nc1cc(C(F)(F)F)ccc1Cl`: the inhibition in experiment [1] (LYPLA2, at 10 µM) was 30% (inactive); in experiment [1] (LYPLA2, inhibition, at 0.3 µM), 30%; in experiment [1] (LYPLA2, inhibition, at 1 µM) it was 30%; in experiment [2] (LYPLA1, at 10 µM), 60% (inactive); in experiment [2] (LYPLA1, inhibition, at 0.3 µM), 30%; in experiment [2] (LYPLA1, inhibition, at 1 µM), 30%.
Consider `COc1ccc(N2CCN(C(=O)n3nc(Br)nc3Br)CC2)cc1`, for which the inhibition in experiment [1] (LYPLA2, at 10 µM) was 95% (inactive); in experiment [1] (LYPLA2, inhibition, at 0.3 µM), 10%; in experiment [1] (LYPLA2, inhibition, at 1 µM) it was 30%; in experiment [2] (LYPLA1, at 10 µM), 95% (inactive); in experiment [2] (LYPLA1, inhibition, at 0.3 µM), 20%; in experiment [2] (LYPLA1, inhibition, at 1 µM), 60%.
Consider `O=C(CN1CCN(C(=O)n2nc(Br)nc2Br)CC1)Nc1cc(C(F)(F)F)ccc1Cl`, for which the inhibition was 100% (inactive) in experiment [1] (LYPLA2, at 10 µM); 40% in experiment [1] (LYPLA2, inhibition, at 0.3 µM); 75% in experiment [1] (LYPLA2, inhibition, at 1 µM); 95% (inactive) in experiment [2] (LYPLA1, at 10 µM); 45% in experiment [2] (LYPLA1, inhibition, at 0.3 µM); 85% in experiment [2] (LYPLA1, inhibition, at 1 µM).
With `COc1ccc(N2CCN(C(=O)n3nc(Br)c(Br)n3)CC2)cc1`, the inhibition in experiment [1] (LYPLA2, at 10 µM) was 100%; in experiment [1] (LYPLA2, inhibition, at 0.3 µM), 50%; in experiment [1] (LYPLA2, inhibition, at 1 µM), 80%; in experiment [2] (LYPLA1, at 10 µM), 95%; in experiment [2] (LYPLA1, inhibition, at 0.3 µM) it was 85%; in experiment [2] (LYPLA1, inhibition, at 1 µM), 95%.
In the case of `COc1ccc(N2CCN(C(=O)n3ncc(-c4ccccc4)n3)CC2)cc1`, the inhibition is 30% (inactive) in experiment [1] (LYPLA2, at 10 µM); 10% in experiment [1] (LYPLA2, inhibition, at 0.3 µM); 30% in experiment [1] (LYPLA2, inhibition, at 1 µM); 30% (inactive) in experiment [2] (LYPLA1, at 10 µM); 20% in experiment [2] (LYPLA1, inhibition, at 0.3 µM); 30% in experiment [2] (LYPLA1, inhibition, at 1 µM).
Take `O=C(CN1CCN(C(=O)n2ncc(-c3ccc(-c4ccccc4)cc3)n2)CC1)Nc1cc(C(F)(F)F)ccc1Cl`: the inhibition in experiment [1] (LYPLA2, at 10 µM) is 30% (inactive); in experiment [1] (LYPLA2, inhibition, at 0.3 µM), 30%; in experiment [1] (LYPLA2, inhibition, at 1 µM) it was 30%; in experiment [2] (LYPLA1, at 10 µM), 30% (inactive); in experiment [2] (LYPLA1, inhibition, at 0.3 µM), 30%; in experiment [2] (LYPLA1, inhibition, at 1 µM), 30%.
As to `COc1ccc(N2CCN(C(=O)n3ncc(-c4ccc(OC(F)(F)F)cc4)n3)CC2)cc1`, the inhibition in experiment [1] (LYPLA2, at 10 µM) was 20% (inactive); in experiment [1] (LYPLA2, inhibition, at 0.3 µM), 10%; in experiment [1] (LYPLA2, inhibition, at 1 µM), 10%; in experiment [2] (LYPLA1, at 10 µM) it was 20% (inactive); in experiment [2] (LYPLA1, inhibition, at 0.3 µM), 10%; in experiment [2] (LYPLA1, inhibition, at 1 µM) it was 10%.
Consider `O=C(CN1CCN(C(=O)n2ncc(C(O)(c3ccccc3)c3ccccc3)n2)CC1)Nc1cc(C(F)(F)F)ccc1Cl`, for which the inhibition in experiment [1] (LYPLA2, at 10 µM) was 100%; in experiment [1] (LYPLA2, inhibition, at 0.3 µM) it was 100%; in experiment [1] (LYPLA2, inhibition, at 1 µM), 100%; in experiment [2] (LYPLA1, at 10 µM), 95%; in experiment [2] (LYPLA1, inhibition, at 0.3 µM), 95%; in experiment [2] (LYPLA1, inhibition, at 1 µM) it was 95%.
On to `O=C(CN1CCN(C(=O)n2ncc(-c3ccc(Br)cc3)n2)CC1)Nc1cc(C(F)(F)F)ccc1Cl`, for which the inhibition in experiment [1] (LYPLA2, at 10 µM) is 75%; in experiment [1] (LYPLA2, inhibition, at 0.3 µM) it was 50%; in experiment [1] (LYPLA2, inhibition, at 1 µM), 40%; in experiment [2] (LYPLA1, at 10 µM) it was 80%; in experiment [2] (LYPLA1, inhibition, at 0.3 µM), 70%; in experiment [2] (LYPLA1, inhibition, at 1 µM) it was 70%.
As for `O=C(CN1CCN(C(=O)n2cc(C(O)(c3ccccc3)c3ccccc3)nn2)CC1)Nc1cc(C(F)(F)F)ccc1Cl`, the inhibition is 100% in experiment [1] (LYPLA2, at 10 µM); 60% in experiment [1] (LYPLA2, inhibition, at 0.3 µM); 85% in experiment [1] (LYPLA2, inhibition, at 1 µM); 95% in experiment [2] (LYPLA1, at 10 µM); 80% in experiment [2] (LYPLA1, inhibition, at 0.3 µM); 90% in experiment [2] (LYPLA1, inhibition, at 1 µM).
